Data published in the supplement of paper PMC11208160.
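Further: IS621 bridge recombinase in Escherichia coli cells against a fixed T5 target plasmid.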

Assay: recombinant UMI read abundance after kanamycin selection (control-corrected) (log10(CPM+1)); higher = more efficient recombination; extreme values may be limits of the assay; sequences stand for … in AGTGCAGAGAAAATCGGCCAGTTTTCTCTGCCTGCAGTCCGCATGCCGTGGGACCCCTTGGGTTCTAACCTGTTGCCTAGATTTATGCAGCGGACTGCCTTTCTCCCAAAGTGATAAACCGG…AGGTTGGTTTCACT; site = the 11-nt donor
How it was run: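 Values are reported as log10(CPM+1), obtained by converting sequencing counts to CPM, averaging replicates and scaling by control-derived factors. The counts came from recombinant UMIs amplified by PCR across the donor–target junction. These UMIs came from a pooled Escherichia coli screen of donor and donor-binding-loop pairs for the IS621 bridge recombinase, plated with IPTG (0.07 mM) plus kanamycin or left unselected, in two replicates each.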
For “GAGCTCACATGGACCGGTTTTCCCGGTAATCCGTATTTGAT (site CAGCTCACTAT)”, the “recombinant UMI read abundance (log10)” value was 0.963.
In the case of “GAGCTCACATGGACCGGTTTTCCCGGTAATCCGTATTTGAT (site GAACTCACTAT)”, the “recombinant UMI read abundance (log10)” value is reported as 0.9.
For “GAGCTCACATGGACCGGTTTTCCCGGTAATCCGTATTTGAT (site GACCTCACTAT)”, the “recombinant UMI read abundance (log10)” value was 0.584.
With “GAGCTCACATGGACCGGTTTTCCCGGTAATCCGTATTTGAT (site GAGATCACTAT)” the “recombinant UMI read abundance (log10)” value was 0.00858.
For “GAGCTCACATGGACCGGTTTTCCCGGTAATCCGTATTTGAT (site GAGCACACTAT)”, the “recombinant UMI read abundance (log10)” value was 0.159.
For “GAGCTCACATGGACCGGTTTTCCCGGTAATCCGTATTTGAT (site GAGCCCACTAT)”, the “recombinant UMI read abundance (log10)” value was 0.905.
For “GAGCTCACATGGACCGGTTTTCCCGGTAATCCGTATTTGAT (site GAGCGCACTAT)”, the “recombinant UMI read abundance (log10)” value was 0.
For “GAGCTCACATGGACCGGTTTTCCCGGTAATCCGTATTTGAT (site GAGCTAACTAT)”, the “recombinant UMI read abundance (log10)” value was 0.
In the case of “GAGCTCACATGGACCGGTTTTCCCGGTAATCCGTATTTGAT (site GAGCTCACTAA)”, the “recombinant UMI read abundance (log10)” value is reported as 0.00273.
For “GAGCTCACATGGACCGGTTTTCCCGGTAATCCGTATTTGAT (site GAGCTCACTAC)”, the “recombinant UMI read abundance (log10)” value was 0.
For “GAGCTCACATGGACCGGTTTTCCCGGTAATCCGTATTTGAT (site GAGCTCACTAG)”, the “recombinant UMI read abundance (log10)” value was 0.209.
With “GAGCTCACATGGACCGGTTTTCCCGGTAATCCGTATTTGAT (site GAGCTCACTAT)” the “recombinant UMI read abundance (log10)” value was 2.18.
In the case of “GAGCTCACATGGACCGGTTTTCCCGGTAATCCGTATTTGAT (site GAGCTCACTCT)”, the “recombinant UMI read abundance (log10)” value is reported as 0.206.
For “GAGCTCACATGGACCGGTTTTCCCGGTAATCCGTATTTGAT (site GAGCTCACTGT)”, the “recombinant UMI read abundance (log10)” value was 0.768.
In the case of “GAGCTCACATGGACCGGTTTTCCCGGTAATCCGTATTTGAT (site GAGCTCACTTT)”, the “recombinant UMI read abundance (log10)” value is reported as 0.125.
With “GAGCTCACATGGACCGGTTTTCCCGGTAATCCGTATTTGAT (site GAGCTCCCTAT)” the “recombinant UMI read abundance (log10)” value was 0.00734.
With “GAGCTCACATGGACCGGTTTTCCCGGTAATCCGTATTTGAT (site GAGCTCGCTAT)” the “recombinant UMI read abundance (log10)” value was 0.318.
With “GAGCTCACATGGACCGGTTTTCCCGGTAATCCGTATTTGAT (site GAGCTCTCTAT)” the “recombinant UMI read abundance (log10)” value was 0.783.
With “GAGCTCACATGGACCGGTTTTCCCGGTAATCCGTATTTGAT (site GAGCTGACTAT)” the “recombinant UMI read abundance (log10)” value was 0.0158.
With “GAGCTCACATGGACCGGTTTTCCCGGTAATCCGTATTTGAT (site GAGCTTACTAT)” the “recombinant UMI read abundance (log10)” value was 0.342.
In the case of “GAGCTCACATGGACCGGTTTTCCCGGTAATCCGTATTTGAT (site GAGGTCACTAT)”, the “recombinant UMI read abundance (log10)” value is reported as 0.0104.
In the case of “GAGCTCACATGGACCGGTTTTCCCGGTAATCCGTATTTGAT (site GAGTTCACTAT)”, the “recombinant UMI read abundance (log10)” value is reported as 0.209.
For “GAGCTCACATGGACCGGTTTTCCCGGTAATCCGTATTTGAT (site GATCTCACTAT)”, the “recombinant UMI read abundance (log10)” value was 0.0468.
For “GAGCTCACATGGACCGGTTTTCCCGGTAATCCGTATTTGAT (site GCGCTCACTAT)”, the “recombinant UMI read abundance (log10)” value was 0.011.
In the case of “GAGCTCACATGGACCGGTTTTCCCGGTAATCCGTATTTGAT (site GGGCTCACTAT)”, the “recombinant UMI read abundance (log10)” value is reported as 0.394.
For “GAGCTCACATGGACCGGTTTTCCCGGTAATCCGTATTTGAT (site GTGCTCACTAT)”, the “recombinant UMI read abundance (log10)” value was 0.296.
For “GAGCTCACATGGACCGGTTTTCCCGGTAATCCGTATTTGAT (site TAGCTCACTAT)”, the “recombinant UMI read abundance (log10)” value was 1.66.
With “GAGCTCTCATGGACCGGTTTTCCCGGTAATCCGTATTTGAC (site GAGCTCTCTGT)” the “recombinant UMI read abundance (log10)” value was 3.55.
In the case of “GAGCTTACATGGACCGGTTTTCCCGGTAATCCGTATTTGAT (site GAGCTAACTAT)”, the “recombinant UMI read abundance (log10)” value is reported as 0.136.
For “GAGCTTACATGGACCGGTTTTCCCGGTAATCCGTATTTGAT (site GAGCTCACTAT)”, the “recombinant UMI read abundance (log10)” value was 0.0125.
With “GAGCTTACATGGACCGGTTTTCCCGGTAATCCGTATTTGAT (site GAGCTGACTAT)” the “recombinant UMI read abundance (log10)” value was 0.0138.
For “GAGCTTACATGGACCGGTTTTCCCGGTAATCCGTATTTGAT (site GAGCTTACTAT)”, the “recombinant UMI read abundance (log10)” value was 1.77.
In the case of “GAGGAGGCATGGACCGGTTTTCCCGGTAATCCGTATTTGTG (site GAGGAGGCTCA)”, the “recombinant UMI read abundance (log10)” value is reported as 0.576.
In the case of “GAGGAGGCATGGACCGGTTTTCCCGGTAATCCGTATTTGTG (site GCGGAGGCTCA)”, the “recombinant UMI read abundance (log10)” value is reported as 0.367.
With “GAGGAGGCATGGACCGGTTTTCCCGGTAATCCGTATTTGTG (site GGGGAGGCTCA)” the “recombinant UMI read abundance (log10)” value was 0.0134.
For “GAGGAGGCATGGACCGGTTTTCCCGGTAATCCGTATTTGTG (site GTGGAGGCTCA)”, the “recombinant UMI read abundance (log10)” value was 0.26.
In the case of “GAGGCAACATGGACCGGTTTTCCCGGTAATCCGTATTTGCT (site GAGGCAACTAG)”, the “recombinant UMI read abundance (log10)” value is reported as 1.66.
In the case of “GAGGGTTCATGGACCGGTTTTCCCGGTAATCCGTATTTGCG (site GAGGGTTCTCG)”, the “recombinant UMI read abundance (log10)” value is reported as 2.63.
With “GAGGTTCCATGGACCGGTTTTCCCGGTAATCCGTATTTGGC (site GAGGTTCCTGC)” the “recombinant UMI read abundance (log10)” value was 0.
In the case of “GAGTAATCATGGACCGGTTTTCCCGGTAATCCGTATTTGGG (site GAGTAATCTCC)”, the “recombinant UMI read abundance (log10)” value is reported as 1.57.
In the case of “GAGTAGGCATGGACCGGTTTTCCCGGTAATCCGTATTTGAT (site GAGTAGGCTAT)”, the “recombinant UMI read abundance (log10)” value is reported as 1.96.
With “GAGTAGGCATGGACCGGTTTTCCCGGTAATCCGTATTTGGG (site GAGTAGGCTCC)” the “recombinant UMI read abundance (log10)” value was 0.566.
For “GAGTCATCATGGACCGGTTTTCCCGGTAATCCGTATTTGGT (site GAGTCATCTAC)”, the “recombinant UMI read abundance (log10)” value was 1.02.
For “GAGTCCCCATGGACCGGTTTTCCCGGTAATCCGTATTTGTC (site GAGTCCCCTGA)”, the “recombinant UMI read abundance (log10)” value was 0.99.
For “GAGTGATCATGGACCGGTTTTCCCGGTAATCCGTATTTGCT (site GAGTGATCTAG)”, the “recombinant UMI read abundance (log10)” value was 2.62.
In the case of “GAGTTCGCATGGACCGGTTTTCCCGGTAATCCGTATTTGGA (site GAGTTCGCTTC)”, the “recombinant UMI read abundance (log10)” value is reported as 1.08.
With “GATAAATCATGGACCGGTTTTCCCGGTAATCCGTATTTGAC (site GATAAATCTGT)” the “recombinant UMI read abundance (log10)” value was 1.03.
In the case of “GATAAGTCATGGACCGGTTTTCCCGGTAATCCGTATTTGCC (site GATAAGTCTGG)”, the “recombinant UMI read abundance (log10)” value is reported as 2.1.
With “GATACGACATGGACCGGTTTTCCCGGTAATCCGTATTTGTT (site GATACGACTAA)” the “recombinant UMI read abundance (log10)” value was 0.259.
In the case of “GATACTGCATGGACCGGTTTTCCCGGTAATCCGTATTTGCA (site GATACTGCTTG)”, the “recombinant UMI read abundance (log10)” value is reported as 1.61.
With “GATACTGCATGGACCGGTTTTCCCGGTAATCCGTATTTGTC (site GATACTGCTGA)” the “recombinant UMI read abundance (log10)” value was 1.28.
With “GATAGGTCATGGACCGGTTTTCCCGGTAATCCGTATTTGGA (site GATAGGTCTTC)” the “recombinant UMI read abundance (log10)” value was 1.15.
For “GATATAGCATGGACCGGTTTTCCCGGTAATCCGTATTTGGT (site GATATAGCTAC)”, the “recombinant UMI read abundance (log10)” value was 1.08.
For “GATATATCATGGACCGGTTTTCCCGGTAATCCGTATTTGCG (site GATATATCTCG)”, the “recombinant UMI read abundance (log10)” value was 1.42.
In the case of “GATCAAACATGGACCGGTTTTCCCGGTAATCCGTATTTGAA (site GATCAAACTTT)”, the “recombinant UMI read abundance (log10)” value is reported as 0.
With “GATCCCTCATGGACCGGTTTTCCCGGTAATCCGTATTTGGC (site GATCCCTCTGC)” the “recombinant UMI read abundance (log10)” value was 0.839.
With “GATCCGTCATGGACCGGTTTTCCCGGTAATCCGTATTTGCG (site GATCCGTCTCG)” the “recombinant UMI read abundance (log10)” value was 0.274.
